# Data: patent publication US20220289816A1, “IMMUNOTHERAPY WITH B*07 RESTRICTED PEPTIDES AND COMBINATION OF PEPTIDES AGAINST CANCERS AND RELATED METHODS” (Immatics Biotechnologies GmbH, priority 2018, published 2022)
# Tested on: CD8+ T cells
# Assay: In vitro immunogenicity: in vitro T-cell priming assay with aAPCs loaded with peptide/MHC complexes and anti-CD28 antibody, pMHC multimer readout
# Format: cell-based, human
# Details: Table 10a, pMHC multimer readout after priming of CD8+ T cells
# Description: In order to obtain information regarding the immunogenicity of the TUMAPs of the present invention, the inventors performed investigations using an in vitro T-cell priming assay based on repeated stimulations of CD8+ T cells with artificial antigen presenting cells (aAPCs) loaded with peptide/MHC complexes and anti-CD28 antibody.
# In order to perform in vitro stimulations by artificial antigen presenting cells loaded with peptide-MHC complex (pMHC) and anti-CD28 antibody, the inventors first isolated CD8+ T cells from fresh HLA-B*07 leukapheresis products via positive selection using CD8 microbeads (Miltenyi Biotec, Bergisch-Gladbach, Germany) of healthy donors obtained from the University clinics Mannheim, Germany, after informed consent.
# PBMCs and isolated CD8+ lymphocytes were incubated in T-cell medium (TCM) until use consisting of RPMI-Glutamax (Invitrogen, Karlsruhe, Germany) supplemented with 10% heat inactivated human AB serum (PAN-Biotech, Aidenbach, Germany), 100 U/ml Penicillin/100 μg/ml Streptomycin (Cambrex, Cologne, Germany), 1 mM sodium pyruvate (CC Pro, Oberdorla, Germany), 20 μg/ml Gentamycin (Cambrex). 2.5 ng/ml IL-7 (PromoCell, Heidelberg, Germany) and 10 U/ml IL-2 (Novartis Pharma, Nürnberg, Germany) were also added to the TCM at this step.
# Generation of pMHC/anti-CD28 coated beads, T-cell stimulations and readout was performed in a highly defined in vitro system using four different pMHC molecules per stimulation condition and 8 different pMHC molecules per readout condition.
# The purified co-stimulatory mouse IgG2a anti human CD28 Ab 9.3 (Jung et al., 1987) was chemically biotinylated using Sulfo-N-hydroxysuccinimidobiotin as recommended by the manufacturer (Perbio, Bonn, Germany). Beads used were 5.6 μm diameter streptavidin coated polystyrene particles (Bangs Laboratories, Illinois, USA).
# 800.000 beads/200 μl were coated in 96-well plates in the presence of 4×12.5 ng different biotin-pMHC, washed and 600 ng biotin anti-CD28 were added subsequently in a volume of 200 μl. Stimulations were initiated in 96-well plates by co-incubating 1×10^6 CD8+ T cells with 2×10^5 washed coated beads in 200 μl TCM supplemented with 5 ng/ml IL-12 (PromoCell) for 3 days at 37° C. Half of the medium was then exchanged by fresh TCM supplemented with 80 U/ml IL-2 and incubating was continued for four days at 37° C. This stimulation cycle was performed for a total of three times. For the pMHC multimer readout using 8 different pMHC molecules per condition, a two-dimensional combinatorial coding approach was used as previously described (Andersen et al., 2012) with minor modifications encompassing coupling to five different fluorochromes. Finally, multimeric analyses were performed by staining the cells with Live/dead near IR dye (Invitrogen, Karlsruhe, Germany), CD8-FITC antibody clone SK1 (BD, Heidelberg, Germany) and fluorescent pMHC multimers. For analysis, a BD LSRII SORP cytometer equipped with appropriate lasers and filters was used. Peptide specific cells were calculated as percentage of total CD8+ cells. Evaluation of multimeric analysis was done using the FlowJo software (Tree Star, Oregon, USA). In vitro priming of specific multimer+CD8+ lymphocytes was detected by comparing to negative control stimulations.
row,Substance,Wells positive [%]
1,420 (SPRWLPVSL; listed as Homo sapiens) [compound 420],++++ (>=70% = ++++)
2,408 (YPKDIYSSF; listed as Homo sapiens) [compound 408],++ (20%-49% = ++)
3,427 (VPSSRILQL; listed as Homo sapiens) [compound 427],+++ (50%-69% = +++)
4,419 (SPMWHVQQL; listed as Homo sapiens) [compound 419],++++ (>=70% = ++++)
5,440 (YPRTITPGM; listed as Homo sapiens) [compound 440],+ (<20% = +)
6,393 (APAAWLRSA; listed as Homo sapiens) [compound 393],+++ (50%-69% = +++)
7,390 (SPRMSGLLSQT; listed as Homo sapiens) [compound 390],+++ (50%-69% = +++)
8,414 (KPSESIYSAL; listed as Homo sapiens) [compound 414],++ (20%-49% = ++)
9,411 (IPNWARQDL; listed as Homo sapiens) [compound 411],++++ (>=70% = ++++)
10,415 (LPSDSHFKITF; listed as Homo sapiens) [compound 415],++ (20%-49% = ++)
11,389 (APLPRPGAVL; listed as Homo sapiens) [compound 389],++ (20%-49% = ++)
12,410 (SPRSWIQVQI; listed as Homo sapiens) [compound 410],+ (<20% = +)
13,423 (SPRVYWLGL; listed as Homo sapiens) [compound 423],++++ (>=70% = ++++)
14,407 (FPRLVGPDF; listed as Homo sapiens) [compound 407],+++ (50%-69% = +++)
15,398 (SPASRSISL; listed as Homo sapiens) [compound 398],+ (<20% = +)
16,443 (VPDGVSKVL; listed as Homo sapiens) [compound 443],+++ (50%-69% = +++)
17,445 (RPAATAVISL; listed as Homo sapiens) [compound 445],+ (<20% = +)
18,391 (APRPASSL; listed as Homo sapiens) [compound 391],+ (<20% = +)
19,430 (RPRALRDLQLL; listed as Homo sapiens) [compound 430],+++ (50%-69% = +++)
20,405 (LPFDGPGGIL; listed as Homo sapiens) [compound 405],++++ (>=70% = ++++)
21,392 (GPQPWHAAL; listed as Homo sapiens) [compound 392],++ (20%-49% = ++)
22,433 (IPEPSAQQL; listed as Homo sapiens) [compound 433],+ (<20% = +)
23,418 (RPMTPTQIGPSL; listed as Homo sapiens) [compound 418],+ (<20% = +)
24,388 (SPSVSQLSVL; listed as Homo sapiens) [compound 388],++++ (>=70% = ++++)
25,406 (LPDGSRVEL; listed as Homo sapiens) [compound 406],++++ (>=70% = ++++)
26,396 (VPDVAQFVL; listed as Homo sapiens) [compound 396],++ (20%-49% = ++)
27,425 (YPRGNHWAVGHL; listed as Homo sapiens) [compound 425],++ (20%-49% = ++)
28,429 (RPRALRDLQL; listed as Homo sapiens) [compound 429],++ (20%-49% = ++)
29,399 (NPFYPEVEL; listed as Homo sapiens) [compound 399],+ (<20% = +)
30,437 (FPYPYAERL; listed as Homo sapiens) [compound 437],+++ (50%-69% = +++)

# Same assay, conditions: Table 10b, pMHC multimer readout after priming of CD8+ T cells
row,Substance,Wells positive [%]
1,4 (GPKKFIVKL; listed as Homo sapiens) [compound 4],+ (<20% = +)
2,361 (SPYGSDRLVQL; listed as Homo sapiens) [compound 361],+ (<20% = +)
3,5 (LPSLSHCSQL; listed as Homo sapiens) [compound 5],++ (20%-49% = ++)
4,364 (KPRTPFTTAQL; listed as Homo sapiens) [compound 364],+ (<20% = +)
5,68 (FPNEVSVVL; listed as Homo sapiens) [compound 68],++ (20%-49% = ++)
6,366 (SPTLRQLDL; listed as Homo sapiens) [compound 366],++ (20%-49% = ++)
7,33 (LPRGLSPARQL; listed as Homo sapiens) [compound 33],++ (20%-49% = ++)
8,56 (LPALLRSGLTL; listed as Homo sapiens) [compound 56],+++ (50%-69% = +++)
9,365 (RPKHFLQML; listed as Homo sapiens) [compound 365],+ (<20% = +)

# Molecular target: HLA-B*07 (Homo sapiens, UniProt P01889)
# Assay: MHC binding assay (UV-ligand exchange, ELISA of stabilized MHC complexes)
# Details: peptide exchange yield on HLA-B*07, UV-ligand exchange
# Method in brief: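 Peptide–MHC complexes were made by UV-ligand exchange, in which a UV-cleavable peptide is replaced by the test peptide. Exchange yield was measured by ELISA of stabilized complexes on streptavidin-coated plates, using HRP anti-β2m detection (1 h, 37 °C), TMB substrate and absorbance at 450 nm.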
row,Substance,Peptide exchange
1,4 (GPKKFIVKL; listed as Homo sapiens) [compound 4],+++ (>50 = +++)
2,361 (SPYGSDRLVQL; listed as Homo sapiens) [compound 361],++++ (>75% = ++++)
3,5 (LPSLSHCSQL; listed as Homo sapiens) [compound 5],++++ (>75% = ++++)
4,364 (KPRTPFTTAQL; listed as Homo sapiens) [compound 364],++++ (>75% = ++++)
5,68 (FPNEVSVVL; listed as Homo sapiens) [compound 68],++++ (>75% = ++++)
6,366 (SPTLRQLDL; listed as Homo sapiens) [compound 366],++++ (>75% = ++++)
7,33 (LPRGLSPARQL; listed as Homo sapiens) [compound 33],+++ (>50 = +++)
8,56 (LPALLRSGLTL; listed as Homo sapiens) [compound 56],++++ (>75% = ++++)
9,365 (RPKHFLQML; listed as Homo sapiens) [compound 365],++++ (>75% = ++++)
10,50 (PEKARAFL; listed as Homo sapiens) [compound 50],+++ (>50 = +++)
11,302 (IPIDQILNSF; listed as Homo sapiens) [compound 302],+++ (>50 = +++)
12,379 (GPRQVLFPL; listed as Homo sapiens) [compound 379],++++ (>75% = ++++)
13,221 (LPQRPNARL; listed as Homo sapiens) [compound 221],+++ (>50 = +++)
14,235 (AQNPAGTAL; listed as Homo sapiens) [compound 235],+ (>10% = +)
15,203 (KPRGPIDI; listed as Homo sapiens) [compound 203],++ (>20% = ++)
16,464 (VPFVPRTSV; listed as Homo sapiens) [compound 464],+++ (>50 = +++)
17,347 (SPLEKINSF; listed as Homo sapiens) [compound 347],++++ (>75% = ++++)
18,37 (LPPPRALTL; listed as Homo sapiens) [compound 37],+++ (>50 = +++)
19,253 (MPVDSFNSML; listed as Homo sapiens) [compound 253],++++ (>75% = ++++)
20,495 (SPSYTQASL; listed as Homo sapiens) [compound 495],++++ (>75% = ++++)
21,481 (SPARALLLALA; listed as Homo sapiens) [compound 481],+++ (>50 = +++)
22,118 (NPERHKPSF; listed as Homo sapiens) [compound 118],+++ (>50 = +++)
23,215 (IPVAIKEL; listed as Homo sapiens) [compound 215],++ (>20% = ++)
24,211 (IPDTIASVL; listed as Homo sapiens) [compound 211],+++ (>50 = +++)
25,96 (QPSLVQAIF; listed as Homo sapiens) [compound 96],++++ (>75% = ++++)
26,255 (VPSHWMVAL; listed as Homo sapiens) [compound 255],++++ (>75% = ++++)
